Data: the Kinase Knowledgebase extract (Sharma et al. 2016)

These molecules were tested against CDK2 (UniProt P24941) (assay: Enzyme Assay). Details: not given.

| Ki [nM] | Compound |
| --- | --- |
| < 5 | CCCOCCNS(=O)(=O)c1ccc(Nc2nc(N)c(C(=O)c3c(F)cccc3F)s2)cc1 |
| 0.48 | CC(C)(O)CCCCNS(=O)(=O)c1ccc(Nc2nc(N)c(C(=O)c3c(F)cccc3F)s2)cc1 |
| < 10 | Cc1cc(F)c(C(=O)c2sc(Nc3ccc(S(=O)(=O)NCc4ccc(C)o4)cc3)nc2N)c(F)c1 |
| 3.6 | Nc1nc(Nc2ccc(S(=O)(=O)NCCCc3ccccc3)cc2)sc1C(=O)c1c(F)cccc1F |
| 6.9 | Cn1cncc1CNS(=O)(=O)c1ccc(Nc2nc(N)c(C(=O)c3c(F)cccc3F)s2)cc1 |
| < 10 | Nc1nc(Nc2ccc(S(=O)(=O)NCCc3cccc(Cl)c3)cc2)sc1C(=O)c1c(F)cccc1F |
| 3.7 | CC(C)CCCCNS(=O)(=O)c1ccc(Nc2nc(N)c(C(=O)c3c(F)cccc3F)s2)cc1 |
| 13 | Nc1nc(Nc2ccc(S(=O)(=O)NCC3CCNCC3)cc2)sc1C(=O)c1c(F)cccc1F |
| 4.6 | Nc1nc(Nc2ccc(S(=O)(=O)NCc3cc4ccccc4o3)cc2)sc1C(=O)c1c(F)cccc1F |
| 4.9 | CCOC(=O)CNS(=O)(=O)c1ccc(Nc2nc(N)c(C(=O)c3c(F)cccc3F)s2)cc1 |

Same assay, conditions: concentration not given here

| inhibition [%] | Compound |
| --- | --- |
| -1 | Nc1nc(Nc2ccc(S(=O)(=O)N(CCO)CCO)cc2)sc1C(=O)c1c(F)cccc1F |
| 27 | Nc1nc(Nc2ccc(S(=O)(=O)N3CCOCC3)cc2)sc1C(=O)c1c(F)cccc1F |
| 30 | Nc1nc(Nc2ccc(S(=O)(=O)N3CCCC(CO)C3)cc2)sc1C(=O)c1c(F)cccc1F (stereo unspecified) |
| 24 | CCN(CCO)S(=O)(=O)c1ccc(Nc2nc(N)c(C(=O)c3c(F)cccc3F)s2)cc1 |
| 12 | CN(Cc1cccnc1)S(=O)(=O)c1ccc(Nc2nc(N)c(C(=O)c3c(F)cccc3F)s2)cc1 |
| 14 | Nc1nc(Nc2ccc(S(=O)(=O)N3CCN(CC(=O)N4CCCC4)CC3)cc2)sc1C(=O)c1c(F)cccc1F |
| 28 | CN(CCO)S(=O)(=O)c1ccc(Nc2nc(N)c(C(=O)c3c(F)cccc3F)s2)cc1 |
| 8 | N#CCCN(C1CC1)S(=O)(=O)c1ccc(Nc2nc(N)c(C(=O)c3c(F)cccc3F)s2)cc1 |
| 40 | NC(=O)C1CCN(S(=O)(=O)c2ccc(Nc3nc(N)c(C(=O)c4c(F)cccc4F)s3)cc2)CC1 |
| 4 | COCCN(C)S(=O)(=O)c1ccc(Nc2nc(N)c(C(=O)c3c(F)cccc3F)s2)cc1 |
| 6 | C=CCN1CCN(S(=O)(=O)c2ccc(Nc3nc(N)c(C(=O)c4c(F)cccc4F)s3)cc2)CC1 |
| 9 | CN(CCc1ccccc1)S(=O)(=O)c1ccc(Nc2nc(N)c(C(=O)c3c(F)cccc3F)s2)cc1 |
| 28 | CN(CCCCCCO)S(=O)(=O)c1ccc(Nc2nc(N)c(C(=O)c3c(F)cccc3F)s2)cc1 |
| 18 | COC(=O)CN(C)S(=O)(=O)c1ccc(Nc2nc(N)c(C(=O)c3c(F)cccc3F)s2)cc1 |
| 27 | CN(CCC#N)S(=O)(=O)c1ccc(Nc2nc(N)c(C(=O)c3c(F)cccc3F)s2)cc1 |
| 16 | CN(CCc1ccccn1)S(=O)(=O)c1ccc(Nc2nc(N)c(C(=O)c3c(F)cccc3F)s2)cc1 |

| inhibition [%] | Compound |
| --- | --- |
| 9 | CN1CCC(N(C)S(=O)(=O)c2ccc(Nc3nc(N)c(C(=O)c4c(F)cccc4F)s3)cc2)CC1 |
| 19 | CN(CCc1ccncc1)S(=O)(=O)c1ccc(Nc2nc(N)c(C(=O)c3c(F)cccc3F)s2)cc1 |
| 8 | COCCN(CCOC)S(=O)(=O)c1ccc(Nc2nc(N)c(C(=O)c3c(F)cccc3F)s2)cc1 |
| 23 | Nc1nc(Nc2ccc(S(=O)(=O)N3CCSCC3)cc2)sc1C(=O)c1c(F)cccc1F |
| 15 | CN(CC(O)CO)S(=O)(=O)c1ccc(Nc2nc(N)c(C(=O)c3c(F)cccc3F)s2)cc1 (stereo unspecified) |
| -1 | Nc1nc(Nc2ccc(S(=O)(=O)N3CCN(CCOCCO)CC3)cc2)sc1C(=O)c1c(F)cccc1F |
| 27 | CCN(CC)CCN(C)S(=O)(=O)c1ccc(Nc2nc(N)c(C(=O)c3c(F)cccc3F)s2)cc1 |
| 37 | Nc1nc(Nc2ccc(S(=O)(=O)N3CCN(c4ccc(F)cc4)CC3)cc2)sc1C(=O)c1c(F)cccc1F |
| 20 | CN(CCC1OCCO1)S(=O)(=O)c1ccc(Nc2nc(N)c(C(=O)c3c(F)cccc3F)s2)cc1 |
| 21 | Nc1nc(Nc2ccc(S(=O)(=O)N3CCC(CCO)CC3)cc2)sc1C(=O)c1c(F)cccc1F |
| 21 | CCN(CC)CCCN(C)S(=O)(=O)c1ccc(Nc2nc(N)c(C(=O)c3c(F)cccc3F)s2)cc1 |
| 11 | Nc1nc(Nc2ccc(S(=O)(=O)N3CCN(CCN4CCOCC4)CC3)cc2)sc1C(=O)c1c(F)cccc1F |
| 18 | CN1CCN(S(=O)(=O)c2ccc(Nc3nc(N)c(C(=O)c4c(F)cccc4F)s3)cc2)CC1 |
| 22 | CN1CCC(N(C)S(=O)(=O)c2ccc(Nc3nc(N)c(C(=O)c4c(F)cccc4F)s3)cc2)C1 (stereo unspecified) |
| 26 | CN(C)CCN(C)S(=O)(=O)c1ccc(Nc2nc(N)c(C(=O)c3c(F)cccc3F)s2)cc1 |
